2 molecules from the NIST ThermoML archive (doi:10.1016/j.jct.2017.01.001) can be followed below.

Each structure is given as a SMILES string. Numbers after ± are expanded uncertainties.

The nature of the data set: wn = mass fraction of the nth substance listed. The note with it: 100 kPa, Liquid, Pycnometric method.

The term mass density denotes mass per unit of volume. As to `O=C([O-])[O-].[K+].[K+]` [potassium carbonate] + O, the mass density reads like this: (323.15 K, w1 = 0.5495) 1583.2 ± 20 kg/m3; (343.15 K, w1 = 0.5753) 1594.3 ± 20 kg/m3; (363.15 K, w1 = 0.5961) 1626.5 ± 20 kg/m3.
As for `O=C([O-])[O-].[Na+].[Na+]` [sodium carbonate] + O, the mass density reads like this: (323.15 K, w1 = 0.323) 1323.5 ± 20 kg/m3; (343.15 K, w1 = 0.3141) 1310.2 ± 20 kg/m3; (363.15 K, w1 = 0.3071) 1268.7 ± 20 kg/m3.
